# From ChEMBL document CHEMBL5154766, “Synthesis, bioevaluation and molecular dynamics of pyrrolo-pyridine benzamide derivatives as potential antitumor agents in vitro and in vivo” (Eur J Med Chem, 2022)
# Calls of active or inactive are those of the source. No cut-off for these calls is given here.
# System: A549
# Experiment: Induction of apoptosis in human A549 cells assessed as early apoptotic cells at 2.5 uM measured after 24 hrs by PI/Annexin V staining based flow cytometry assay (reference value: 2.5%)
# Format: functional
# Details: not given
row,Compound,Activity
1,O=C(Nc1ccc(Oc2ccnc3[nH]ccc23)c(F)c1)c1cn(-c2ccc(Br)cc2)c2ncccc2c1=O,3.33%

# System: A549
# Experiment: Induction of apoptosis in human A549 cells assessed as cell fragment formation at 1 to 5 uM measured after 12 hrs by Acridine orange staining method
# Format: functional, cell-based
# Details: dose 1-5 µM
row,Compound,Activity
1,O=C(Nc1ccc(Oc2ccnc3[nH]ccc23)c(F)c1)c1cn(-c2ccc(Br)cc2)c2ncccc2c1=O,Active

# System: A549
# Experiment: Induction of apoptosis in human A549 cells assessed as increase in chromatin contraction at 1 to 5 uM measured after 12 hrs by Acridine orange staining method
# Format: functional, cell-based
# Details: dose 1-5 µM
row,Compound,Activity
1,O=C(Nc1ccc(Oc2ccnc3[nH]ccc23)c(F)c1)c1cn(-c2ccc(Br)cc2)c2ncccc2c1=O,Active

# System: A549
# Experiment: Antitumor activity against human A549 cells xenografted in BALB/c nude mouse assessed as reduction in Ki67 expression at 20 mg/kg, ip administered every two days for 18 days by immunohistochemistry
# Format: functional, organism-based
# Details: time 18.0 day
row,Compound,Activity
1,O=C(Nc1ccc(Oc2ccnc3[nH]ccc23)c(F)c1)c1cn(-c2ccc(Br)cc2)c2ncccc2c1=O,Active

# System: not listed separately
# Experiment: Toxicity in BALB/c nude mouse xenografted with human A549 cells assessed as effect on body weight at 20 mg/kg, ip administered every two days for 18 days
# Format: organism-based
# Details: in vivo, 432 h, time 18 day
row,Compound,Activity
1,O=C(Nc1ccc(Oc2ccnc3[nH]ccc23)c(F)c1)c1cn(-c2ccc(Br)cc2)c2ncccc2c1=O,Non-Toxic

# System: A549
# Experiment: Induction of apoptosis in human A549 cells assessed as early apoptotic cells at 10 uM measured after 24 hrs by PI/Annexin V staining based flow cytometry assay (reference value: 2.5%)
# Format: functional
# Details: not given
row,Compound,Activity
1,O=C(Nc1ccc(Oc2ccnc3[nH]ccc23)c(F)c1)c1cn(-c2ccc(Br)cc2)c2ncccc2c1=O,4%

# System: A549
# Experiment: Induction of cell cycle arrest in human A549 cells assessed as accumulation at G0/G1 phase at 2.5 uM measured by flow cytometry (reference value: 57.68%)
# Format: functional
# Details: not given
row,Compound,Activity
1,O=C(Nc1ccc(Oc2ccnc3[nH]ccc23)c(F)c1)c1cn(-c2ccc(Br)cc2)c2ncccc2c1=O,58.72%

# System: A549
# Experiment: Induction of apoptosis in human A549 cells assessed as cytoplasmic shrinkage at 1 to 5 uM measured after 12 hrs by Acridine orange staining method
# Format: functional, cell-based
# Details: dose 1-5 µM
row,Compound,Activity
1,O=C(Nc1ccc(Oc2ccnc3[nH]ccc23)c(F)c1)c1cn(-c2ccc(Br)cc2)c2ncccc2c1=O,Active

# System: A549
# Experiment: Induction of cell cycle arrest in human A549 cells assessed as accumulation at G0/G1 phase at 5 uM measured by flow cytometry (reference value: 57.68%)
# Format: functional
# Details: not given
row,Compound,Activity
1,O=C(Nc1ccc(Oc2ccnc3[nH]ccc23)c(F)c1)c1cn(-c2ccc(Br)cc2)c2ncccc2c1=O,60.15%

# System: A549
# Experiment: Induction of cell cycle arrest in human A549 cells assessed as accumulation at G2/M phase at 5 uM measured by flow cytometry (reference value: 7.98%)
# Format: functional
# Details: not given
row,Compound,Activity
1,O=C(Nc1ccc(Oc2ccnc3[nH]ccc23)c(F)c1)c1cn(-c2ccc(Br)cc2)c2ncccc2c1=O,13.01%

# System: A549
# Experiment: Downregulation of c-Met expression in human A549 cells at 5 to 10 uM measured by fluorescence quantitative PCR analysis
# Format: functional, cell-based
# Details: dose 5-10 µM
row,Compound,Activity
1,O=C(Nc1ccc(Oc2ccnc3[nH]ccc23)c(F)c1)c1cn(-c2ccc(Br)cc2)c2ncccc2c1=O,Active

# System: MCF7
# Experiment: Antiproliferative activity against human MCF7 cells expressing c-Met after 48 hrs by MTT assay
# Format: functional, cell-based
# Details: MCF7, 48 h
row,Compound,IC50
1,O=C(Nc1ccc(Oc2ccnc3[nH]ccc23)c(F)c1)c1cn(-c2ccc(Br)cc2)c2ncccc2c1=O,0.11 µM

# System: A549
# Experiment: Induction of cell cycle arrest in human A549 cells assessed as accumulation at G2/M phase at 2.5 uM measured by flow cytometry (reference value: 7.98%)
# Format: functional
# Details: not given
row,Compound,Activity
1,O=C(Nc1ccc(Oc2ccnc3[nH]ccc23)c(F)c1)c1cn(-c2ccc(Br)cc2)c2ncccc2c1=O,10.19%

# System: A549
# Experiment: Induction of apoptosis in human A549 cells assessed as late apoptotic cells at 5 uM measured after 24 hrs by PI/Annexin V staining based flow cytometry assay (reference value: 4.49%)
# Format: functional
# Details: not given
row,Compound,Activity
1,O=C(Nc1ccc(Oc2ccnc3[nH]ccc23)c(F)c1)c1cn(-c2ccc(Br)cc2)c2ncccc2c1=O,8.13%

# System: HeLa
# Experiment: Antiproliferative activity against human HeLa cells expressing c-Met after 48 hrs by MTT assay
# Format: functional, cell-based
# Details: not given
row,Compound,IC50
1,O=C(Nc1ccc(Oc2ccnc3[nH]ccc23)c(F)c1)c1cn(-c2ccc(Br)cc2)c2ncccc2c1=O,10.9 µM

# System: not listed separately
# Experiment: Toxicity in BALB/c nude mouse xenografted with human A549 cells assessed as effect on liver at 20 mg/kg, ip administered every two days for 18 days by H and E staining method
# Format: organism-based
# Details: in vivo, 432 h, time 18 day
row,Compound,Activity
1,O=C(Nc1ccc(Oc2ccnc3[nH]ccc23)c(F)c1)c1cn(-c2ccc(Br)cc2)c2ncccc2c1=O,Non-Toxic

# System: not listed separately
# Experiment: Toxicity in BALB/c nude mouse xenografted with human A549 cells assessed as effect on kidney at 20 mg/kg, ip administered every two days for 18 days by H and E staining method
# Format: organism-based
# Details: in vivo, 432 h, time 18 day
row,Compound,Activity
1,O=C(Nc1ccc(Oc2ccnc3[nH]ccc23)c(F)c1)c1cn(-c2ccc(Br)cc2)c2ncccc2c1=O,Non-Toxic

# System: A549
# Experiment: Induction of apoptosis in human A549 cells assessed as late apoptotic cells at 10 uM measured after 24 hrs by PI/Annexin V staining based flow cytometry assay (reference value: 4.49%)
# Format: functional
# Details: not given
row,Compound,Activity
1,O=C(Nc1ccc(Oc2ccnc3[nH]ccc23)c(F)c1)c1cn(-c2ccc(Br)cc2)c2ncccc2c1=O,12.69%

# System: A549
# Experiment: Induction of cell cycle arrest in human A549 cells assessed as accumulation at G0/G1 phase at 10 uM measured by flow cytometry (reference value: 57.68%)
# Format: functional
# Details: not given
row,Compound,Activity
1,O=C(Nc1ccc(Oc2ccnc3[nH]ccc23)c(F)c1)c1cn(-c2ccc(Br)cc2)c2ncccc2c1=O,69.22%

# System: not listed separately
# Experiment: Toxicity in BALB/c nude mouse xenografted with human A549 cells assessed as effect on heart at 20 mg/kg, ip administered every two days for 18 days by H and E staining method
# Format: organism-based
# Details: in vivo, 432 h, time 18 day
row,Compound,Activity
1,O=C(Nc1ccc(Oc2ccnc3[nH]ccc23)c(F)c1)c1cn(-c2ccc(Br)cc2)c2ncccc2c1=O,Non-Toxic

# System: A549
# Experiment: Induction of cell cycle arrest in human A549 cells assessed as accumulation at S phase at 10 uM measured by flow cytometry (reference value: 34.34%)
# Format: functional
# Details: not given
row,Compound,Activity
1,O=C(Nc1ccc(Oc2ccnc3[nH]ccc23)c(F)c1)c1cn(-c2ccc(Br)cc2)c2ncccc2c1=O,15.31%

# System: A549
# Experiment: Induction of apoptosis in human A549 cells assessed as apoptotic bodies formation at 1 to 5 uM measured after 12 hrs by Acridine orange staining method
# Format: functional, cell-based
# Details: dose 1-5 µM
row,Compound,Activity
1,O=C(Nc1ccc(Oc2ccnc3[nH]ccc23)c(F)c1)c1cn(-c2ccc(Br)cc2)c2ncccc2c1=O,Active

# System: A549
# Experiment: Antiproliferative activity against human A549 cells expressing c-Met after 48 hrs by MTT assay
# Format: functional, cell-based
# Details: A549, 48 h
row,Compound,IC50
1,O=C(Nc1ccc(Oc2ccnc3[nH]ccc23)c(F)c1)c1cn(-c2ccc(Br)cc2)c2ncccc2c1=O,1.06 µM

# System: A549
# Experiment: Antitumor activity against human A549 cells xenografted in BALB/c nude mouse assessed as tumor growth inhibition at 20 mg/kg, ip administered every two days for 18 days
# Format: functional
# Details: A549, 432 h, time 18 day, read-out: TGI
row,Compound,inhibition in vivo at 20 mg/kg
1,O=C(Nc1ccc(Oc2ccnc3[nH]ccc23)c(F)c1)c1cn(-c2ccc(Br)cc2)c2ncccc2c1=O,64.5%

# System: A549
# Experiment: Induction of cell cycle arrest in human A549 cells assessed as accumulation at S phase at 2.5 uM measured by flow cytometry (reference value: 34.34%)
# Format: functional
# Details: not given
row,Compound,Activity
1,O=C(Nc1ccc(Oc2ccnc3[nH]ccc23)c(F)c1)c1cn(-c2ccc(Br)cc2)c2ncccc2c1=O,31.09%

# System: A549
# Experiment: Induction of apoptosis in human A549 cells assessed as early apoptotic cells at 5 uM measured after 24 hrs by PI/Annexin V staining based flow cytometry assay (reference value: 2.5%)
# Format: functional
# Details: not given
row,Compound,Activity
1,O=C(Nc1ccc(Oc2ccnc3[nH]ccc23)c(F)c1)c1cn(-c2ccc(Br)cc2)c2ncccc2c1=O,2.2%

# System: A549
# Experiment: Induction of apoptosis in human A549 cells assessed as late apoptotic cells at 2.5 uM measured after 24 hrs by PI/Annexin V staining based flow cytometry assay (reference value: 4.49%)
# Format: functional
# Details: not given
row,Compound,Activity
1,O=C(Nc1ccc(Oc2ccnc3[nH]ccc23)c(F)c1)c1cn(-c2ccc(Br)cc2)c2ncccc2c1=O,5.58%

# System: A549
# Experiment: Induction of cell cycle arrest in human A549 cells assessed as accumulation at G2/M phase at 10 uM measured by flow cytometry (reference value: 7.98%)
# Format: functional
# Details: not given
row,Compound,Activity
1,O=C(Nc1ccc(Oc2ccnc3[nH]ccc23)c(F)c1)c1cn(-c2ccc(Br)cc2)c2ncccc2c1=O,15.48%

# System: A549
# Experiment: Induction of apoptosis in human A549 cells assessed as membrane swelling at 1 to 5 uM measured after 12 hrs by Acridine orange staining method
# Format: functional, cell-based
# Details: dose 1-5 µM
row,Compound,Activity
1,O=C(Nc1ccc(Oc2ccnc3[nH]ccc23)c(F)c1)c1cn(-c2ccc(Br)cc2)c2ncccc2c1=O,Active

# System: A549
# Experiment: Induction of cell cycle arrest in human A549 cells assessed as accumulation at S phase at 5 uM measured by flow cytometry (reference value: 34.34%)
# Format: functional
# Details: not given
row,Compound,Activity
1,O=C(Nc1ccc(Oc2ccnc3[nH]ccc23)c(F)c1)c1cn(-c2ccc(Br)cc2)c2ncccc2c1=O,26.84%
